Reference: PubChem BioAssay (NCI)
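Grown in 96-well plates, cells were treated for 48 hours with each compound at five concentrations. Insufficient inhibition: endpoint recorded as highest concentration tested. GI50: concentration for 50% inhibition of growth. TGI is the concentration that stops growth completely.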

These molecules were tested on SNB-75 CNS (assay: growth of human tumour cells (NCI), 48 h).
Molecule `CN(C)CC1CCCC/C1=N/OC(=O)c1ccc(Cl)cc1` (stereo not given) has a TGI of over 100 µM.
Molecule `N#CC(C(=O)C(=O)C(C#N)c1ccc(Br)cc1)c1ccc(Br)cc1` (stereo not given) has a TGI of 17.7 µM.
In the case of `COc1cccc(C2=NC(C(C)C)CO2)c1` (stereo not given), the TGI is reported as over 100 µM.
`CCOC(=O)C(=[N+]=[N-])[Si](C)(C)C` showed a TGI of over 100 µM.
Molecule `O=C(CC1(O)C(=O)N(Cc2ccccc2)c2ccc(F)cc21)c1ccc(C(=O)NCC2CCC3(CC2)OOC2(CCCCC2)OO3)cc1` (stereo not given) has a GI50 of 1.48 µM and a TGI of 3.19 µM.
`COc1cc2c3c(n(C)c(=O)c2cc1OC)-c1cc2c(cc1/C3=C\CN)OCO2` showed a GI50 of 0.154 µM and a TGI of 59.7 µM.
`COc1ccc(/C=C2/N=C(c3ccccc3)N(c3c(C)n(C)n(-c4ccccc4)c3=O)C2=O)cc1OC` showed a GI50 of 86.4 µM and a TGI of over 100 µM.
In the case of `CCCc1nc(NC#N)nc(C(=O)Nc2ccccc2)c1CC`, the TGI is reported as over 100 µM.
With `O=C(CCc1n[nH]c(=S)o1)Nc1ccccc1C(F)(F)F` the TGI was over 100 µM.
With `CCn1c2ccccc2c2cc(NC(=O)Nc3ccc([N+](=O)[O-])cc3C)ccc21` the GI50 was 3.05 µM and the TGI was 17.6 µM.
`Cc1ccc(NC(=O)CCc2cc(C(C)(C)C)nc(=S)[nH]2)cc1C` gave a TGI of over 100 µM.
In the case of `Cc1[nH]c2ccccc2c1C(=O)/C=C/c1ccccc1O`, the TGI is reported as over 100 µM.
With `O=C(Nc1nc(=S)c2c(ncn2CCOC(=O)c2ccccc2)[nH]1)c1ccccc1` the TGI was 47.5 µM.
In the case of `COc1ccc(CC2NCCc3c2[nH]c2ccccc32)cc1` (stereo not given), the TGI is reported as over 100 µM.
`O=C(CSc1nc2ccccc2nc1-c1ccccc1)Nc1ccc(F)cc1` gave a GI50 of 21.6 µM and a TGI of 80.8 µM.
In the case of `Cc1ccc(/C=C/C(=O)c2sc(-c3nc(C)c(C(=O)/C=C/c4ccc(C)cc4)s3)nc2C)cc1`, the TGI is reported as over 100 µM.
Work on `Cn1cc(-c2csc(-c3c[nH]c4ccc(F)cc34)n2)c2cnccc21` yielded a GI50 of 1.5 µM and a TGI of 2.85 µM.
In the case of `O=C1Nc2ccccc2/C1=N\[O-].O=C1Nc2ccccc2/C1=N\[O-].[Cu+2]`, the GI50 is reported as over 100 µM and the TGI is reported as over 100 µM.
In the case of `CCC[CH2][Sn]([Cl])([CH2]CCC)[CH2]CCC`, the GI50 is reported as 0.111 µM and the TGI is reported as 0.354 µM.
`O=c1ccn([C@H]2CSC[C@@H](CO)C2)c(=O)[nH]1` showed a TGI of over 100 µM.
Molecule `COc1cc(-n2cc(-c3ccc(F)cc3)[nH]c2=O)cc(OC)c1OC` has a GI50 of 31.5 µM and a TGI of 86.3 µM.

What follows are molecules tested on MALME-3M melanoma (assay: growth of human tumour cells (NCI), 48 h).
`CN(C)CC[PH+](c1ccccc1)c1ccccc1.CN(C)CC[PH+](c1ccccc1)c1ccccc1.[Cl-].[Pd+2]` was tested, and the GI50 was over 100 µM and the TGI was over 100 µM.
`O=C(c1ccccc1)c1cc2ccccc2o1` was tested, and the GI50 was over 100 µM and the TGI was over 100 µM.
`O=C(Nc1ccncc1)C(=O)c1cn(S(=O)(=O)c2ccc(F)cc2)c2ccccc12` was tested, and the GI50 was 1.61 µM and the TGI was 88.8 µM.
Molecule `C=C(C)[C@@H]1CC[C@]2(C)[C@H](CC=C3[C@@H]4CC(C)(C)CC[C@]4(C(N)=O)CC[C@]32C)[C@@]1(C)CCC#N` has a GI50 of 2.24 µM and a TGI of 5.91 µM.
For `O=C(N[C@@H](c1ccc(Cl)c(Cl)c1)C1CNC1)c1ccc2cnccc2c1`, the GI50 was 0.138 µM and the TGI was 0.7 µM.
Molecule `CO/N=C(\COc1ccc2c(c1)oc(=O)c1cc(OC)ccc12)c1ccc(OC)cc1` has a GI50 of over 100 µM and a TGI of over 100 µM.
Work on `COc1ccc(NC(=O)/C(Cc2cc(=O)oc3cc(O)ccc23)=N\NC(C)(C)C)c(OC)c1` yielded a TGI of over 100 µM.
`O=C1/C(=C/c2ccc3c(c2)OCO3)SC2C=Nc3ccccc3N12` (stereo not given) was tested, and the TGI was over 100 µM.
Work on `CCOc1ccc(NC(=O)C(=O)CC(=O)c2c(C)n([O-])c3ccccc3[n+]2=O)cc1` yielded a TGI of over 100 µM.
Work on `Cc1cc(Cl)ccc1NC(=O)C(=O)Cc1nc2ccccc2o1` yielded a TGI of over 100 µM.
`OCC1OC(c2nc(C3=NCCCN3)cs2)C(O)C1O` (stereo not given) showed a TGI of over 100 µM.
`CCC(C)COC(=O)c1ccc(N=Cc2ccc(C=Nc3ccc(C(=O)OCC(C)CC)cc3)cc2)cc1` (stereo not given) showed a TGI of over 100 µM.
With `COc1cc(F)ccc1-c1ncnc(Nc2cccc(CS(C)(=N)=O)c2)n1` (stereo not given) the GI50 was 2.73 µM and the TGI was 9.66 µM.
For `Cc1cc(N(CCC#N)CCC#N)ccc1N=Nc1ccc(C(=O)O)cc1`, the TGI was over 100 µM.
With `[Cl][Hg][c]1cc[c]([Hg][Cl])o1` the GI50 was 1.68 µM and the TGI was 3.37 µM.
Work on `CN(C)CC1CCCC/C1=N/OC(=O)c1ccc(Cl)cc1` (stereo not given) yielded a TGI of over 100 µM.
In the case of `N#CC(C(=O)C(=O)C(C#N)c1ccc(Br)cc1)c1ccc(Br)cc1` (stereo not given), the TGI is reported as 27.7 µM.
